Assays:
[1] = target: D(4) dopamine receptor (Homo sapiens) (UniProt P21917); conditions: Compound concentration 10.0 uM
[2] = target: Sodium-dependent serotonin transporter (Homo sapiens) (UniProt P31645); conditions: Compound concentration 10.0 uM
[3] = target: Rho-associated protein kinase 2 (Homo sapiens) (UniProt O75116); conditions: Compound concentration 1000.0 nM
[4] = tested on: Receptor-type tyrosine-protein kinase FLT3 (Homo sapiens), P36888 [UNDEFINED MUTATION]; conditions: Compound concentration 1000.0 nM
[5] = target: Muscarinic acetylcholine receptor M2 (Homo sapiens) (UniProt P08172); conditions: Compound concentration 10.0 uM
[6] = target: Thromboxane A2 receptor (Homo sapiens) (UniProt P21731); assay: PROST_A2TP Eurofins-Panlabs selectivity data (BI); conditions: Compound concentration 10.0 uM
[7] = target: Calcium/calmodulin-dependent protein kinase type II subunit gamma (Homo sapiens) (UniProt Q13555); conditions: Compound concentration 1000.0 nM
Calcium/calmodulin-dependent protein kinase type II subunit gamma (Homo sapiens), sequence (Q13555 whole entry): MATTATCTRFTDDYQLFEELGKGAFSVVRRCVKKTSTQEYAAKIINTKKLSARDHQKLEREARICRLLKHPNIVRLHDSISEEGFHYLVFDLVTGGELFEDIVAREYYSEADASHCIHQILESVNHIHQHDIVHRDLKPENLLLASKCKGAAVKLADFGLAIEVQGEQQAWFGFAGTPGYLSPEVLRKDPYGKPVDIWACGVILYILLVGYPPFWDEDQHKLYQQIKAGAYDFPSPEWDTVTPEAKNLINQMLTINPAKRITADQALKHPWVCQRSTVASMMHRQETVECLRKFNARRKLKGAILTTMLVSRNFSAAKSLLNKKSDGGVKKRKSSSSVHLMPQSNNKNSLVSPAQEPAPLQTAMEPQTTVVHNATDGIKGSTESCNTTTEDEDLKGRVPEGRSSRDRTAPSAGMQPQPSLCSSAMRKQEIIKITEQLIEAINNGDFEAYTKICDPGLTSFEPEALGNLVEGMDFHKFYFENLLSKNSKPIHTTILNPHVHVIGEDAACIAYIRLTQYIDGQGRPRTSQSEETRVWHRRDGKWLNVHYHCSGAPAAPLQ

[8] = target: Dual specificity mitogen-activated protein kinase kinase 4 (Homo sapiens) (UniProt P45985); conditions: Compound concentration 1000.0 nM
Dual specificity mitogen-activated protein kinase kinase 4 (Homo sapiens), sequence (P45985 whole entry): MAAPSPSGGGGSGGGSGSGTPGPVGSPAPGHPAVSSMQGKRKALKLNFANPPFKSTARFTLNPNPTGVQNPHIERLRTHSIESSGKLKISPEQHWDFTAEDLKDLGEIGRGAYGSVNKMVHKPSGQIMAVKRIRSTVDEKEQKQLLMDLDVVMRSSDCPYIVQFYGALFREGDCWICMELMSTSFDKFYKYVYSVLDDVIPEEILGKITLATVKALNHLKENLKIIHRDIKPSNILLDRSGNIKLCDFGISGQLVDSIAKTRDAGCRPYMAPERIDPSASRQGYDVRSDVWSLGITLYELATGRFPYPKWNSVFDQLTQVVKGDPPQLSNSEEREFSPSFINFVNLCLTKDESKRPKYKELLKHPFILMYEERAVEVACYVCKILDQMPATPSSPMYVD

[9] = target: Tyrosine-protein kinase ABL1 (Homo sapiens) (UniProt P00519); conditions: Compound concentration 1000.0 nM
[10] = tested on: eIF-2-alpha kinase GCN2 (Homo sapiens), Q9P2K8 [S808G]; conditions: Compound concentration 1000.0 nM
[11] = target: Small conductance calcium-activated potassium channel protein 1 (Rattus norvegicus) (UniProt P70606); assay: K+/SKCA Eurofins-Panlabs selectivity data (BI); conditions: Compound concentration 10.0 uM
Small conductance calcium-activated potassium channel protein 1 (Rattus norvegicus), sequence (P70606 whole entry): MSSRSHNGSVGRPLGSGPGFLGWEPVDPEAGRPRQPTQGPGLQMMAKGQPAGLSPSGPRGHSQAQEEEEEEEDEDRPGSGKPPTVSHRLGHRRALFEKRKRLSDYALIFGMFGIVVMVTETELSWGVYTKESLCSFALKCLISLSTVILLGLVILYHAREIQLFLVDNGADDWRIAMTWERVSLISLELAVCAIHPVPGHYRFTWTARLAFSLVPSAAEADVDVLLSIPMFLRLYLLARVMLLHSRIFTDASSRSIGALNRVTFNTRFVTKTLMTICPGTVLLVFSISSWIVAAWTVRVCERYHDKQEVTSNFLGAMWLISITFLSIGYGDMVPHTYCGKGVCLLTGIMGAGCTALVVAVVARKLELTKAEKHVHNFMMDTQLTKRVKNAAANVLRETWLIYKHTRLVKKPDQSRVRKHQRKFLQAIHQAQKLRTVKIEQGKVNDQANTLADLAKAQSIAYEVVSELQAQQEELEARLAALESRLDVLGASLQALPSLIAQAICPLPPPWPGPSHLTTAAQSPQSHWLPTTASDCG

[12] = target: Serine/threonine-protein kinase NLK (Homo sapiens) (UniProt Q9UBE8); conditions: Compound concentration 1000.0 nM
[13] = tested on: Phosphatidylinositol 4,5-bisphosphate 3-kinase catalytic subunit alpha isoform (Homo sapiens), P42336 [Q546K]; conditions: Compound concentration 1000.0 nM
[14] = target: Sodium-dependent noradrenaline transporter (Homo sapiens) (UniProt P23975); assay: NETRANS/H Eurofins-Panlabs selectivity data (BI); conditions: Compound concentration 10.0 uM
[15] = target: Endothelin-converting enzyme 1 (Homo sapiens) (UniProt P42892); assay: ECE-1 (HU) Eurofins-Panlabs selectivity data (BI); conditions: Compound concentration 10.0 uM
[16] = target: Misshapen-like kinase 1 (Homo sapiens) (UniProt Q8N4C8); conditions: Compound concentration 1000.0 nM
Misshapen-like kinase 1 (Homo sapiens), sequence (Q8N4C8 whole entry, looked up): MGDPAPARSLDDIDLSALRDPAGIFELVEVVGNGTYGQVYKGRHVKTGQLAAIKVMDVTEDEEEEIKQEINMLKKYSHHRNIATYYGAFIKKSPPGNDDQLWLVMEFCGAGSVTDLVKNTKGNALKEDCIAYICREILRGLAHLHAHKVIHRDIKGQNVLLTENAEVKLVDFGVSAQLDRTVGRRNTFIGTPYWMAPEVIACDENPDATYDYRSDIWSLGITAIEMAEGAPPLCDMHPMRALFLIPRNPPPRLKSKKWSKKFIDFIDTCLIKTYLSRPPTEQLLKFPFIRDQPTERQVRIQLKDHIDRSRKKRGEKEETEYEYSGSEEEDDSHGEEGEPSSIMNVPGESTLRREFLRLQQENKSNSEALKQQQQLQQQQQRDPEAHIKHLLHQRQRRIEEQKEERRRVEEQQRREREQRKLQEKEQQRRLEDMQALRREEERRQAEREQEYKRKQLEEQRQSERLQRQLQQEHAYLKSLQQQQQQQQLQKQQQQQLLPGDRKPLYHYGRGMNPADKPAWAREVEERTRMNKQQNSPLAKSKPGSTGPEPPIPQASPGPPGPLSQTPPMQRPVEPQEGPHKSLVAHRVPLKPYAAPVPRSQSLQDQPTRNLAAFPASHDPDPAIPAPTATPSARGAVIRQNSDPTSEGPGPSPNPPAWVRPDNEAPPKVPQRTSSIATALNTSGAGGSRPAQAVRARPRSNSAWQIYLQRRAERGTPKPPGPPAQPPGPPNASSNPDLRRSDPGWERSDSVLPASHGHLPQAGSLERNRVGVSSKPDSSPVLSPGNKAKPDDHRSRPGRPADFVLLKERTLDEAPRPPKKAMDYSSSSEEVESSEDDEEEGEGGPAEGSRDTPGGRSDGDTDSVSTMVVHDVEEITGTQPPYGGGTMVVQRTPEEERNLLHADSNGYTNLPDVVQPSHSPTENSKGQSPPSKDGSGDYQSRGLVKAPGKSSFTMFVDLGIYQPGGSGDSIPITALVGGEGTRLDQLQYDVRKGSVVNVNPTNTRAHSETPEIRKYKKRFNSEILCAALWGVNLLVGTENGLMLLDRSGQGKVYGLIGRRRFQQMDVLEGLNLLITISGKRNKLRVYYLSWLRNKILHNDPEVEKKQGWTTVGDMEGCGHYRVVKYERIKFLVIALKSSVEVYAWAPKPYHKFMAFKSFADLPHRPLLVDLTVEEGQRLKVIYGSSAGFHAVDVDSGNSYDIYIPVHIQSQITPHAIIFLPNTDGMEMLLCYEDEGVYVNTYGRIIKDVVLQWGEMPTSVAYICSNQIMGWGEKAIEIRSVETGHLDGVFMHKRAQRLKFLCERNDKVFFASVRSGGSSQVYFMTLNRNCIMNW

[17] = target: Receptor-interacting serine/threonine-protein kinase 4 (Homo sapiens) (UniProt P57078); conditions: Compound concentration 1000.0 nM
[18] = tested on: Receptor-type tyrosine-protein kinase FLT3 (Homo sapiens), P36888 [K663Q]; conditions: Compound concentration 1000.0 nM
[19] = target: Interferon-induced, double-stranded RNA-activated protein kinase (Homo sapiens) (UniProt P19525); conditions: Compound concentration 1000.0 nM
Interferon-induced, double-stranded RNA-activated protein kinase (Homo sapiens), sequence (P19525 whole entry, canonical isoform): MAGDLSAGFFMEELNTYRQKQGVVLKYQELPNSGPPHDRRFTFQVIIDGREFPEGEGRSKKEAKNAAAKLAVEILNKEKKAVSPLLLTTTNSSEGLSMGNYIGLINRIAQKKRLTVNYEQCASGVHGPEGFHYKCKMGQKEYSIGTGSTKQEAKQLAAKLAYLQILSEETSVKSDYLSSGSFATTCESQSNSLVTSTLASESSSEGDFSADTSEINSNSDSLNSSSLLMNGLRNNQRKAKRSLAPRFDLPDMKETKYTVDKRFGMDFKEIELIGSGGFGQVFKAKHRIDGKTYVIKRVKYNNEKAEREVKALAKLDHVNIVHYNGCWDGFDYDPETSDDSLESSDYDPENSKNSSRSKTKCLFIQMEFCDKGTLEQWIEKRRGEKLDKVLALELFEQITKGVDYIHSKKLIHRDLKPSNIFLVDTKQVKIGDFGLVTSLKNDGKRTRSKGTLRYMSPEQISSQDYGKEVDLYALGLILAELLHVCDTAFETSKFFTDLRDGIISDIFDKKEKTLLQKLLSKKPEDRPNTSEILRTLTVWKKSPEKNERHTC

[20] = target: Casein kinase I isoform epsilon (Homo sapiens) (UniProt P49674); conditions: Compound concentration 1000.0 nM
[21] = target: Ephrin type-A receptor 7 (Homo sapiens) (UniProt Q15375); conditions: Compound concentration 1000.0 nM
[22] = target: T1, Thromboxane-A synthase (Homo sapiens) (UniProt P24557); assay: THRO SYN(HU) Eurofins-Panlabs selectivity data (BI)
T1 sequence (whole entry): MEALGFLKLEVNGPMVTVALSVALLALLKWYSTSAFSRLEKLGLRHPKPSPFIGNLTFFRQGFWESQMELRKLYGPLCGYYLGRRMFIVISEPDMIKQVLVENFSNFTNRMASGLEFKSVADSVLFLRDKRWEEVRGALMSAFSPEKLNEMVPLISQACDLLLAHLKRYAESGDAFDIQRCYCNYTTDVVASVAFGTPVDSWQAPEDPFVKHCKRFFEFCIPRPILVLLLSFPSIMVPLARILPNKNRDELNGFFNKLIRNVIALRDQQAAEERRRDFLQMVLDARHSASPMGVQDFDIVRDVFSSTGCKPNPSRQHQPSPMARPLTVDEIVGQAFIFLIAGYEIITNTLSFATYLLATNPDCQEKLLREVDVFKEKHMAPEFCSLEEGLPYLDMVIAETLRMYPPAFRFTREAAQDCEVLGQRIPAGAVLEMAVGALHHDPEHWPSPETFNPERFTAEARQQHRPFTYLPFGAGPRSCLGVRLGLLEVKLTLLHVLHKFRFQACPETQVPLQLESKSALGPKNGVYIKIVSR

[23] = target: Protein kinase C delta type (Homo sapiens) (UniProt Q05655); conditions: Compound concentration 1000.0 nM
[24] = target: Dual specificity protein kinase CLK1 (Homo sapiens) (UniProt P49759); conditions: Compound concentration 1000.0 nM
[25] = target: MAP/microtubule affinity-regulating kinase 4 (Homo sapiens) (UniProt Q96L34); conditions: Compound concentration 1000.0 nM
MAP/microtubule affinity-regulating kinase 4 (Homo sapiens), sequence (Q96L34 whole entry): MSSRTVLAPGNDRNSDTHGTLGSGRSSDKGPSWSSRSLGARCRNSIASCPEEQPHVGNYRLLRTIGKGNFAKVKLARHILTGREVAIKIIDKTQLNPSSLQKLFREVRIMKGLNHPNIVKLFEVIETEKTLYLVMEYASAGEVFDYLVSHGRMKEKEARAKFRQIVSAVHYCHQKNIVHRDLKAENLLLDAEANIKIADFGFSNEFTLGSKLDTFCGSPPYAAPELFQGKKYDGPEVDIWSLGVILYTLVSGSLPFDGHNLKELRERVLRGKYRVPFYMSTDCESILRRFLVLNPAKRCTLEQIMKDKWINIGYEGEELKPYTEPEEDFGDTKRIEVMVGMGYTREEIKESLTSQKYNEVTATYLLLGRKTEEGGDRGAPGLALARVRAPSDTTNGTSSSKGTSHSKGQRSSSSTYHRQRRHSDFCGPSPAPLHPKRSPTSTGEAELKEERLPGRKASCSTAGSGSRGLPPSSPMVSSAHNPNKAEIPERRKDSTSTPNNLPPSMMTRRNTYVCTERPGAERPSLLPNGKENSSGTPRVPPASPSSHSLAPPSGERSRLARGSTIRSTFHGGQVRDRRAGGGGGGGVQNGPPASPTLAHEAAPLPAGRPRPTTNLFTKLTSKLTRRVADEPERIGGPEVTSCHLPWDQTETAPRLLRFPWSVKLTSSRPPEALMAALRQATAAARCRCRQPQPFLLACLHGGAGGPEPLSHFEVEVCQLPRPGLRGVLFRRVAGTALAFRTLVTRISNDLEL

[26] = target: D(2) dopamine receptor (Homo sapiens) (UniProt P14416); assay: D2L/H Eurofins-Panlabs selectivity data (BI); conditions: Compound concentration 10.0 uM
D(2) dopamine receptor (Homo sapiens), sequence (P14416 whole entry): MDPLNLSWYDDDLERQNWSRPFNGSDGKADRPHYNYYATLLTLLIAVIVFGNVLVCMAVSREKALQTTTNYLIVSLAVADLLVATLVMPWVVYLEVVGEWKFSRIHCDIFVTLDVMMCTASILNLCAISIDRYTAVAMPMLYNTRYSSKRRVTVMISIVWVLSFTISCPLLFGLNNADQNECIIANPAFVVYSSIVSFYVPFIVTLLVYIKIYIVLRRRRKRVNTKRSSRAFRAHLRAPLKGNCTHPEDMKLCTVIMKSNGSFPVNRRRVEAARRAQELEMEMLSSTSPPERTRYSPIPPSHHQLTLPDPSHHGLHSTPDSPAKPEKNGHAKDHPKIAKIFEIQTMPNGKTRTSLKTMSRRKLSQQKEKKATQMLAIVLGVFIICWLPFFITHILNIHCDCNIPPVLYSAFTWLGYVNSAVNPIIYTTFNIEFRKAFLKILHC

[27] = target: Dual specificity tyrosine-phosphorylation-regulated kinase 1A (Homo sapiens) (UniProt Q13627); conditions: Compound concentration 1000.0 nM
[28] = target: Cyclin-dependent kinase-like 2 (Homo sapiens) (UniProt Q92772); conditions: Compound concentration 1000.0 nM
[29] = target: AP2-associated protein kinase 1 (Homo sapiens) (UniProt Q2M2I8); conditions: Compound concentration 1000.0 nM
[30] = target: RAC-gamma serine/threonine-protein kinase (Homo sapiens) (UniProt Q9Y243); conditions: Compound concentration 1000.0 nM
[31] = tested on: Phosphatidylinositol 4,5-bisphosphate 3-kinase catalytic subunit alpha isoform (Homo sapiens), P42336 [H1047L]; conditions: Compound concentration 1000.0 nM
[32] = target: cGMP-dependent protein kinase 1 (Homo sapiens) (UniProt Q13976); conditions: Compound concentration 1000.0 nM
[33] = target: Tyrosine-protein kinase Fer (Homo sapiens) (UniProt P16591); conditions: Compound concentration 1000.0 nM
[34] = target: Phosphatidylinositol 4,5-bisphosphate 3-kinase catalytic subunit alpha isoform (Homo sapiens) (UniProt P42336); conditions: Compound concentration 1000.0 nM
[35] = target: Dual specificity mitogen-activated protein kinase kinase 7 (Homo sapiens) (UniProt O14733); conditions: Compound concentration 1000.0 nM
[36] = target: Alpha-2B adrenergic receptor (Homo sapiens) (UniProt P18089); conditions: Compound concentration 10.0 uM
Alpha-2B adrenergic receptor (Homo sapiens), sequence (P18089 whole entry): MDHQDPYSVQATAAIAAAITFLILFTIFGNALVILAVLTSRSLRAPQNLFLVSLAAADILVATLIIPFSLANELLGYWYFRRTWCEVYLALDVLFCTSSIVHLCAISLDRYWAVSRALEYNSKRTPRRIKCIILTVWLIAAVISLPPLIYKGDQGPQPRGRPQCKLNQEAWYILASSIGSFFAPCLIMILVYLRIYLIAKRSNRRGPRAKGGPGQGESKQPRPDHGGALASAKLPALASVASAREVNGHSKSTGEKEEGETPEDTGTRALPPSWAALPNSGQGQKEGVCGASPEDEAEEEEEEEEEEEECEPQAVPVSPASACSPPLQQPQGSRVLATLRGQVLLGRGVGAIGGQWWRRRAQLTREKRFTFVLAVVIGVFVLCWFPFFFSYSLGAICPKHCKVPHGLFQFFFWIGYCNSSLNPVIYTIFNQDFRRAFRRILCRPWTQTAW

Structure (SMILES): CCOCCn1cc(C(=O)Nc2ccc(-n3nc(-c4cccnc4)cc3C(F)(F)F)cn2)ccc1=O [BI 1935]
- inhibition [1]: -3.89%
- inhibition [2]: 8.63%
- residual activity [3]: 88%
- residual activity [4]: 56%
- inhibition [5]: -3%
- residual activity [6]: 98%
- residual activity [7]: 100%
- residual activity [8]: 80%
- residual activity [9]: 61%
- residual activity [10]: 72%
- residual activity [11]: 106%
- residual activity [12]: 47%
- residual activity [13]: 95%
- residual activity [14]: 97%
- residual activity [15]: 84%
- residual activity [16]: 89%
- residual activity [17]: 81%
- residual activity [18]: 98%
- residual activity [19]: 100%
- residual activity [20]: 100%
- residual activity [21]: 98%
- residual activity ([22]; Compound concentration 0.03 uM): 86%
- residual activity ([22]; Compound concentration 0.1 uM): 57%
- residual activity ([22]; Compound concentration 0.3 uM): 27%
- residual activity ([22]; Compound concentration 1.0 uM): 13%
- residual activity ([22]; Compound concentration 3.0 uM): 2%
- residual activity ([22]; Compound concentration 10.0 uM): 4%
- residual activity [23]: 100%
- residual activity [24]: 100%
- residual activity [25]: 100%
- residual activity [26]: 97%
- residual activity [27]: 77%
- residual activity [28]: 100%
- residual activity [29]: 100%
- residual activity [30]: 100%
- residual activity [31]: 93%
- residual activity [32]: 98%
- residual activity [33]: 100%
- residual activity [34]: 92%
- residual activity [35]: 85%
- inhibition [36]: 4.9%
